Assays:
Rat NHE3 = molecular target: T1, Rat NHE3 (Rattus norvegicus, UniProt P26433); assay: Cell-based NHE3 activity under prompt conditions (OK cells, BCECF pH recovery), rat NHE3; conditions: prompt conditions
T1 construct: expressed in transfected cells; host or cells: Opossum kidney (OK) cells (ATCC), electroporation
How it was run: (§1)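 Cells (OK line, electroporated with rat or human NHE3) are washed in NaCl-HEPES pH 7.4, then dye-loaded 30 min at room temperature with 5 μM BCECF-AM in NH4Cl buffer.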

Human NHE3 = molecular target: T2, Human NHE3 (Homo sapiens, UniProt P48764); assay: Cell-based NHE3 activity under prompt conditions (OK cells, BCECF pH recovery), human NHE3; conditions: prompt conditions
T2 construct: expressed in transfected cells; host or cells: Opossum kidney (OK) cells (ATCC), electroporation
T2 sequence (P48764 26-834): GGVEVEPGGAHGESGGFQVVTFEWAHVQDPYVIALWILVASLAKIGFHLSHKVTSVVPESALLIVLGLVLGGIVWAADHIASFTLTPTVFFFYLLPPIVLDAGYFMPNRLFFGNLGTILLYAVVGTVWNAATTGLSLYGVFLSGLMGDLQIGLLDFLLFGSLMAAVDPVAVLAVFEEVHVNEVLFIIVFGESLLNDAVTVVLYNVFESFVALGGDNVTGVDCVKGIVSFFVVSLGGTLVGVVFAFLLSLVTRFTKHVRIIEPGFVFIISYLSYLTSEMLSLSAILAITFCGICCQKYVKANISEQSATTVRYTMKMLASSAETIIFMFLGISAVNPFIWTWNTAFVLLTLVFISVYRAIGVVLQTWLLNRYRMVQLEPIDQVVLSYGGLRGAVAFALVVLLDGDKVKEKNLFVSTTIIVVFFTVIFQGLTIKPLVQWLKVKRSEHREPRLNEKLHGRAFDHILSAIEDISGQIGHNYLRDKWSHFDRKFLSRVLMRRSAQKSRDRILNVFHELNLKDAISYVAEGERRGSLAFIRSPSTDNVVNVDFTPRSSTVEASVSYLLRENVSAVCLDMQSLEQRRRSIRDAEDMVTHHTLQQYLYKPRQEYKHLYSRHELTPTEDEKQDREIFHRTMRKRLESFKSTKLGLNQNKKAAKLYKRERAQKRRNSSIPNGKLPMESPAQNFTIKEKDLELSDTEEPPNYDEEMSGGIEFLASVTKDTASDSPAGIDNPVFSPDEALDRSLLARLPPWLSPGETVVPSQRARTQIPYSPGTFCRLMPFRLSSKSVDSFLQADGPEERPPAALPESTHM
How it was run: as §1

[1] = system: absorption of sodium from the intestinal lumen; assay: Inhibition of intestinal sodium absorption: urinary sodium (uNa) 16 h after single oral dose in rats; format: in vivo, rat; conditions: oral gavage, 16 h post-dose
How it was run: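 Eight-week-old Sprague-Dawley rats (n=6) given single oral gavage of compound or water vehicle in the late afternoon, then kept in metabolic cages with chow and water ad libitum. Urine collected over 16 h; sodium quantified by ion chromatography and expressed as % of vehicle mean, compared by one-way ANOVA with Dunnett's test.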

[2] = system: absorption of sodium from the intestinal lumen; assay: Fecal form score (FFS) 16 h after oral dose in rats; format: in vivo, rat; conditions: oral gavage, 16 h post-dose, scale 1-5
How it was run: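 Eight-week-old Sprague-Dawley rats (n=6) dosed by oral gavage with compound or water vehicle between 4 and 5 PM, then housed in metabolic cages with food and water ad libitum. At 16 h, fecal form scored 1 (normal pellet) to 5 (liquid streams) by two observers; group mean reported.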

[3] = system: phosphorus and calcium levels in the urine of rats; assay: Urinary excretion of phosphate and calcium in rats (16 h overnight urine); format: in vivo, rat; conditions: rats, oral gavage, 16 h post-dose

T1 sequence (P26433 29-831): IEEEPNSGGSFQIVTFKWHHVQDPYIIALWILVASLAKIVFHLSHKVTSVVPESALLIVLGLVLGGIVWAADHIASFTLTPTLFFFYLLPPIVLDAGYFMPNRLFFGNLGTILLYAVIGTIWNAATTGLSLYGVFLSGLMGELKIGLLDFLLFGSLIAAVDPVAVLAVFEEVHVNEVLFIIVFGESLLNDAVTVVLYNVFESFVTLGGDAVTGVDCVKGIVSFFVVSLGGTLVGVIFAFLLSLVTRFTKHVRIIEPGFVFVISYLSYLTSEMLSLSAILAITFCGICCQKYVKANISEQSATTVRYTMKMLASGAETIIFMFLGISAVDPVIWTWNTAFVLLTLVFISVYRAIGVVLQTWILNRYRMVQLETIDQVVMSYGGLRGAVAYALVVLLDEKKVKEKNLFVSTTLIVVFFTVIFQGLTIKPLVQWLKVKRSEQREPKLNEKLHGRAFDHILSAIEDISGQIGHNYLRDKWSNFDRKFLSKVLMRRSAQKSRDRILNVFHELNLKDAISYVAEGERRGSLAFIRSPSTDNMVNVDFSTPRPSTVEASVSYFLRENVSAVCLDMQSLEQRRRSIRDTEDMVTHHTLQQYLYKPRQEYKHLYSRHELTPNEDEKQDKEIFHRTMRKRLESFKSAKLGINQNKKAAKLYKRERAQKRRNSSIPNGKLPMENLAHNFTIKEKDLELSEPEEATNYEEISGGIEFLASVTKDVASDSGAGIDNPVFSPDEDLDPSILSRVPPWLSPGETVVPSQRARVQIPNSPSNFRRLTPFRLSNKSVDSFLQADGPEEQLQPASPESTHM

Prompt Rat NHE3 pIC50 (Rat NHE3)	Prompt Human NHE3 pIC50 (Human NHE3)	Compound	Urine Na % of control ([1]; dose 3 mg/kg)	Fecal Form Score average ([2]; dose 3 mg/kg)	Urine P % of control ([3]; dose 3 mg/kg)	Urine Na % of control ([1]; dose 10 mg/kg)	Fecal Form Score average ([2]; dose 10 mg/kg)	Urine P % of control ([3]; dose 10 mg/kg)	Urine Na % of control ([1]; dose 1 mg/kg)	Fecal Form Score average ([2]; dose 1 mg/kg)	Urine P % of control ([3]; dose 1 mg/kg)
5.60	6.90	CN1Cc2c(Cl)cc(Cl)cc2[C@H](c2cccc(S(=O)(=O)NCCOCCOCCNC(=O)CCC(CCC(=O)NCCOCCOCCNS(=O)(=O)c3cccc([C@@H]4CN(C)Cc5c(Cl)cc(Cl)cc54)c3)(CCC(=O)NCCOCCOCCNS(=O)(=O)c3cccc([C@@H]4CN(C)Cc5c(Cl)cc(Cl)cc54)c3)NC(=O)N(C)C)c2)C1 [compound 129]	16%	2	48%						
<5.00	<5.00	CN1Cc2c(Cl)cc(Cl)cc2[C@H](c2cccc(S(=O)(=O)NCCOCCOCCNC(=O)NCCN(CCNC(=O)NCCOCCOCCNS(=O)(=O)c3cccc([C@@H]4CN(C)Cc5c(Cl)cc(Cl)cc54)c3)C(=O)CCCCCCCCCCC(=O)N(CCNC(=O)NCCOCCOCCNS(=O)(=O)c3cccc([C@@H]4CN(C)Cc5c(Cl)cc(Cl)cc54)c3)CCNC(=O)NCCOCCOCCNS(=O)(=O)c3cccc([C@@H]4CN(C)Cc5c(Cl)cc(Cl)cc54)c3)c2)C1 [compound 83]				82%	1	59%			
7.10	8.00	CN(C)CC(=O)NC(CCC(=O)NCCOCCOCCNS(=O)(=O)c1cccc([C@@H]2CN(C)Cc3c(Cl)cc(Cl)cc32)c1)(CCC(=O)NCCOCCOCCNS(=O)(=O)c1cccc([C@@H]2CN(C)Cc3c(Cl)cc(Cl)cc32)c1)CCC(=O)NCCOCCOCCNS(=O)(=O)c1cccc([C@@H]2CN(C)Cc3c(Cl)cc(Cl)cc32)c1 [compound 128]	35%	2	58%				46%	1	90%
7.07	7.93	CN1Cc2c(Cl)cc(Cl)cc2[C@H](c2cccc(S(=O)(=O)NCCOCCOCCNC(=O)CCC(N)(CCC(=O)NCCOCCOCCNS(=O)(=O)c3cccc([C@@H]4CN(C)Cc5c(Cl)cc(Cl)cc54)c3)CCC(=O)NCCOCCOCCNS(=O)(=O)c3cccc([C@@H]4CN(C)Cc5c(Cl)cc(Cl)cc54)c3)c2)C1 [compound 88]	22%	3	75%	21%	5	69%	84%	1	77%
7.60	8.50	CN1Cc2c(Cl)cc(Cl)cc2[C@H](c2cccc(S(=O)(=O)NCCOCCOCCNC(=O)COCC(=O)NCCOCCOCCNS(=O)(=O)c3ccc(O[C@H]4c5ccccc5C[C@@H]4N4CCCCC4)cc3)c2)C1 [compound 97]				64%	1	78%			
8.20	8.30	CN(C)[C@H]1Cc2c(Cl)cc(Cl)cc2[C@@H]1Oc1ccc(S(=O)(=O)NCCOCCOCCNC(=O)NCCCCNC(=O)NCCOCCOCCNS(=O)(=O)c2ccc(O[C@H]3c4cc(Cl)cc(Cl)c4C[C@@H]3N(C)C)cc2)cc1 [compound 127]	39%	1	62%	9%	1	53%	55%	1	159%

The next lines start with the compound.

Compound	Prompt Rat NHE3 pIC50 (Rat NHE3)	Prompt Human NHE3 pIC50 (Human NHE3)	Urine Na % of control ([1]; dose 3 mg/kg)	Fecal Form Score average ([2]; dose 3 mg/kg)	Urine P % of control ([3]; dose 3 mg/kg)	Urine Na % of control ([1]; dose 10 mg/kg)	Fecal Form Score average ([2]; dose 10 mg/kg)	Urine P % of control ([3]; dose 10 mg/kg)	Urine Na % of control ([1]; dose 1 mg/kg)	Fecal Form Score average ([2]; dose 1 mg/kg)	Urine P % of control ([3]; dose 1 mg/kg)
C/C(=C\c1cc(F)c(Oc2ccc(S(=O)(=O)NCCOCCOCCOCCNC(=O)COCC(=O)NCCOCCOCCOCCNS(=O)(=O)c3ccc(Oc4c(F)cc(/C=C(\C)C(=O)N=C(N)N)cc4F)cc3)cc2)c(F)c1)C(=O)N=C(N)N [compound 15]	7.30	7.90				77%	1	65%			
CN1Cc2c(Cl)cc(Cl)cc2C(c2cccc(S(=O)(=O)NCCOCCOCCOCCNC(=O)NCCN(CCNC(=O)NCCOCCOCCOCCNS(=O)(=O)c3cccc([C@@H]4CN(C)Cc5c(Cl)cc(Cl)cc54)c3)CCNC(=O)NCCOCCOCCOCCNS(=O)(=O)c3cccc([C@@H]4CN(C)Cc5c(Cl)cc(Cl)cc54)c3)c2)C1 (stereo in doubt) [compound 59]	6.90	7.30				18%	2	45%			
CCN(CCOCCOCCNC(=O)NCCCN(CCCNC(=O)NCCOCCOCCN(CC)S(=O)(=O)c1cccc([C@@H]2CN(C)Cc3c(Cl)cc(Cl)cc32)c1)CCCNC(=O)NCCOCCOCCN(CC)S(=O)(=O)c1cccc([C@@H]2CN(C)Cc3c(Cl)cc(Cl)cc32)c1)S(=O)(=O)c1cccc([C@@H]2CN(C)Cc3c(Cl)cc(Cl)cc32)c1 [compound 132]	6.00	7.70	65%	1	88%						
O=C(NCCOCCOCCOCCNS(=O)(=O)c1ccc(O[C@H]2c3ccccc3C[C@@H]2N2CCCCC2)cc1)c1ccc(C(=O)NCCOCCOCCOCCNS(=O)(=O)c2ccc(O[C@H]3c4ccccc4C[C@@H]3N3CCCCC3)cc2)cc1 [compound 117]	7.50	8.20				77%	1	98%			
CN(CC(=O)NCCOCCOCCOCCNS(=O)(=O)c1ccc(OC2c3ccccc3CC2N2CCCCC2)cc1)CC(=O)NCCOCCOCCOCCNS(=O)(=O)c1ccc(OC2c3ccccc3CC2N2CCCCC2)cc1 (stereo not drawn) [compound 52]	7.35	7.40				68%	1	71%			
CN1Cc2c(Cl)cc(Cl)cc2[C@H](c2cccc(S(=O)(=O)NCCOCCOCCNC(=O)N(C)CCCN(CCCN(C)C(=O)NCCOCCOCCNS(=O)(=O)c3cccc([C@@H]4CN(C)Cc5c(Cl)cc(Cl)cc54)c3)CCCN(C)C(=O)NCCOCCOCCNS(=O)(=O)c3cccc([C@@H]4CN(C)Cc5c(Cl)cc(Cl)cc54)c3)c2)C1 [compound 107]	6.90	8.10	55%	1	66%	28%	4	59%	88%	1	106%
C/C(=C\c1cc(F)c(Oc2ccc(S(=O)(=O)NCCOCCOCCOCCNC(=O)NCCCCNC(=O)NCCOCCOCCOCCNS(=O)(=O)c3ccc(Oc4c(F)cc(/C=C(\C)C(=O)N=C(N)N)cc4F)cc3)cc2)c(F)c1)C(=O)N=C(N)N [compound 29]	7.50	8.10				92%	1	102%			
CN1Cc2c(Cl)cc(Cl)cc2[C@H](c2cccc(S(=O)(=O)NCCOCCOCCOCCNC(=O)NCCCN(CCCNC(=O)NCCOCCOCCOCCNS(=O)(=O)c3cccc([C@@H]4CN(C)Cc5c(Cl)cc(Cl)cc54)c3)CCCNC(=O)NCCOCCOCCOCCNS(=O)(=O)c3cccc([C@@H]4CN(C)Cc5c(Cl)cc(Cl)cc54)c3)c2)C1 [compound 64]	7.40	8.20				34%	1	66%			
O=C(NCCCCNC(=O)NCCOCCOCCNS(=O)(=O)c1ccc(O[C@H]2c3cc(F)ccc3C[C@@H]2N2CCCCC2)cc1)NCCOCCOCCNS(=O)(=O)c1ccc(O[C@H]2c3cc(F)ccc3C[C@@H]2N2CCCCC2)cc1 [compound 140]	8.90	7.70				110%	1	121%			
